Laboratory results reported in patent publication US12606528B2, “Methods and materials for inhibiting NF-kB activity” (University of Pittsburgh - Of the Commonwealth System of …, priority 2019, dated 2026).
Like-named read-outs stand apart in the source and are kept apart here.

Test system: NF-κB
Assay: NF-κB assay: THP1-NF-κB-LUC cells, LPS-stimulated secreted luciferase
Assay type: cell-based
Conditions: THP1-NF-κB-LUC cells, read-out: IC50 (NF-κB assay)
Method: FIG. 1 contains line plots showing NF-κB activity of exemplified compounds. 25k THP1-NF-κB-LUC cells were dispensed into 384 well plate (per well). Cells were treated with compounds (2 μM and 0.2 μM) for 2 hours before addition of LPS (10 ng/mL) for 18 hours. Secreted luciferase activity were measured using quant-luc reagents (1 bag of luc reagent dilute to 40 mL, use 10 μL per well). Data were normalized to vehicle control and graphed. Structures of selected exemplified compounds are shown.
FIG. 2 contains heat charts showing NF-κB activity of exemplified compounds as a function of concentration. 25k THP1-NF-κB-LUC cells were dispensed into 384 well plate (per well). Cells were treated with compounds (with serial dilution) for 2 hours before addition of LPS (10 ng/ml) for 18 hours. Secreted luciferase activity were measured using quant-luc reagents (1 bag of luc reagent dilute to 40 mL, use 10 μL per well). Structures of selected exemplified compounds are shown.
25k THP1-NF-κB-LUC cells were dispensed into 384 well plate (per well). Cells were treated with compounds with various concentrations for 2 hours before addition of LPS (10 ng/mL) for 18 hours. Secreted luciferase activity were measured using quant-luc reagents (1 bag of luc reagent dilute to 40 mL, use 10 μL per well). Data were normalized to vehicle control and graphed. Compound IC50 towards inhibiting NF-κB were determined through Prism. Similarly, 10k human PBMCs cells were cultured in 384 well plate (per well). Cells were treated with compounds with various concentrations for 2 hours before addition of LPS (10 ng/ml) for 18 hours, and supernatants were collected and assayed for TNF ELISA. Compound IC50 towards inhibiting TNF release were determined through Prism. • Activity: “+”>10 μM, “++”>1 μM and <10 μM, “+++”>0.1 μM and <1 μM, “++++”<0.1 μM.

[1] = compounds 2 hours before LPS (10 ng/mL) for 18 hours, secreted luciferase

SMILES	IC50 [1] [nM]	IC50 (LPS-stimulated) [nM]
N#Cc1ccc2c(=O)c(S(=O)(=O)c3ccc(F)c(Cl)c3)c[nH]c2c1 [BC18300]	100 to 1000	
O=c1c(S(=O)(=O)c2cccc(F)c2)c[nH]c2c(F)cccc12 [BC18301]	1000 to 10000	
Cc1ccc(S(=O)(=O)c2c[nH]c3cc(Cl)ccc3c2=O)cc1F [BC18302]	< 100	
Cc1ccc(S(=O)(=O)c2c[nH]c3ccc(F)cc3c2=O)cc1F [BC18303]	< 100	
O=c1c(S(=O)(=O)c2cc(Cl)cc(Cl)c2)c[nH]c2ccc(Cl)cc12 [BC18304]	1000 to 10000	
N#Cc1ccc2[nH]cc(S(=O)(=O)c3cc(Cl)cc(Cl)c3)c(=O)c2c1 [BC18305]	100 to 1000	
N#Cc1ccc(S(=O)(=O)c2c[nH]c3ccc(F)cc3c2=O)cc1 [BC18306]	> 10000	
COc1ccc2[nH]cc(S(=O)(=O)c3ccc(C)c(F)c3)c(=O)c2c1 [BC18307]	100 to 1000	
COc1ccc2[nH]cc(S(=O)(=O)c3cc(Cl)cc(Cl)c3)c(=O)c2c1 [BC18308]	> 10000	
COc1ccc(S(=O)(=O)c2c[nH]c3cc(F)ccc3c2=O)cc1 [BC18309]	1000 to 10000	
N#Cc1cccc(S(=O)(=O)c2c[nH]c3cc(C#N)ccc3c2=O)c1 [BC18310]	< 100	
Cc1ccc2[nH]cc(S(=O)(=O)c3ccc(C#N)cc3)c(=O)c2c1 [BC18311]	> 10000	
COc1ccc2[nH]cc(S(=O)(=O)c3ccc(C#N)cc3)c(=O)c2c1 [BC18312]	> 10000	
Cc1ccc(S(=O)(=O)c2cc3cc(Cl)ccc3oc2=O)cc1Cl [BC18313]	> 10000	
Cc1ccc(S(=O)(=O)c2cc3cc(Br)ccc3oc2=O)cc1Cl [BC18314]	> 10000	
Cc1cc(C)c(S(=O)(=O)c2ccc(Br)cc2)c(=O)[nH]1 [BC18315]	> 10000	
COc1ccc2cc(S(=O)(=O)c3ccc(C)c(Cl)c3)c(=O)oc2c1 [BC18316]	> 10000	
N#Cc1cccc(S(=O)(=O)c2cc3cc(Br)ccc3oc2=O)c1 [BC18317]	> 10000	
CCc1ccc(C(=O)C2=CN(c3ccccc3)c3ccc(F)cc3S2(=O)=O)cc1 [BC18318]	> 10000	
COc1cccc2cc(S(=O)(=O)c3ccc(C)c(Cl)c3)c(=O)oc12 [BC18319]	> 10000	
CCc1ccc(S(=O)(=O)c2c[nH]c3cc(F)c(F)cc3c2=O)cc1 [BC18320]	< 100	
CCc1ccc(S(=O)(=O)c2c[nH]c3ccc(F)cc3c2=O)cc1 [BC18321]	100 to 1000	
CC(C)(C)c1ccc(S(=O)(=O)c2c[nH]c3ccc(Br)cc3c2=O)cc1 [BC18322]	1000 to 10000	
CCOc1ccc2[nH]cc(S(=O)(=O)c3ccc(CO)cc3)c(=O)c2c1 [BC18323]	100 to 1000	
Cc1ccc(S(=O)(=O)c2cn(C)c3cc(F)c(F)cc3c2=O)cc1 [BC18324]	> 10000	
CCn1cc(S(=O)(=O)c2ccc(C)cc2)c(=O)c2cc(F)ccc21 [BC18325]	> 10000	

SMILES	IC50 [1] [nM]	IC50 (LPS-stimulated) [nM]
CCc1ccc2c(c1)c(=O)c(S(=O)(=O)c1ccc(C)cc1)cn2C [BC18326]	> 10000	
CCOc1ccc2c(c1)c(=O)c(S(=O)(=O)c1ccc(Cl)cc1)cn2C [BC18327]	> 10000	
Cc1ccc(S(=O)(=O)c2cn(Cc3cccc(C)c3)c3ccc(F)cc3c2=O)cc1 [BC18328]	1000 to 10000	
COc1ccc(S(=O)(=O)c2cn(CC(=O)Nc3ccc(C)cc3)c3ccc(Cl)cc3c2=O)cc1 [BC18329]	> 10000	
COc1ccc(S(=O)(=O)c2cn(CC(=O)Nc3ccc(C)cc3)c3ccc(F)cc3c2=O)cc1 [BC18330]	> 10000	
CCc1ccc(S(=O)(=O)c2cn(CCO)c3cc(F)c(F)cc3c2=O)cc1 [BC18331]	> 10000	
COc1ccc(S(=O)(=O)c2cn(CC(=O)Nc3ccccc3)c3ccc(F)cc3c2=O)cc1 [BC18332]	> 10000	
COc1cc2c(=O)c(S(=O)(=O)c3ccc(Cl)cc3)cn(Cc3ccccc3F)c2cc1OC [BC18333]	> 10000	
COc1ccc(S(=O)(=O)c2cn(CC(=O)Nc3ccc(Cl)cc3)c3ccc(C)cc3c2=O)cc1 [BC18334]	> 10000	
COc1ccc(S(=O)(=O)c2cn(CC(=O)Nc3ccc(F)cc3)c3ccc(C)cc3c2=O)cc1 [BC18335]	> 10000	
CCCCn1cc(S(=O)(=O)c2ccc(C)cc2)c(=O)c2cc(Cl)ccc21 [BC18336]	> 10000	
COc1cc2c(=O)c(S(=O)(=O)c3ccccc3)cn(Cc3cccc(Cl)c3)c2cc1OC [BC18337]	> 10000	
COc1ccc2[nH]cc(S(=O)(=O)c3ccc(OC)c(OC)c3)c(=O)c2c1 [BC18338]	> 10000	
N#Cc1ccc(S(=O)(=O)c2c[nH]c3cc(F)ccc3c2=O)cc1F [BC18339]	100 to 1000	
O=c1c(S(=O)(=O)c2ccc(F)c(F)c2)c[nH]c2c(F)ccc(Cl)c12 [BC18340]	< 100	
CCN(CC)C(=O)c1ccc2nc(-c3ccccc3)c(-c3ccccc3)nc2c1 [BC18400]		< 100
CCOc1ccccc1CNC(=O)c1ccc2nc(-c3ccc(F)cc3)c(-c3ccc(F)cc3)nc2c1 [BC18401]		100 to 1000
CCCNC(=O)c1ccc2nc(-c3cccc(C)c3)c(-c3cccc(C)c3)nc2c1 [BC18402]		1000 to 10000
CC(C)NC(=O)c1ccc2nc(-c3ccc(F)cc3)c(-c3ccc(F)cc3)nc2c1 [BC18403]		< 100
CCOCCCNC(=O)c1ccc2nc(-c3ccc(F)cc3)c(-c3ccc(F)cc3)nc2c1 [BC18404]		< 100
O=C(NCc1cccnc1)c1ccc2nc(-c3ccccc3)c(-c3ccccc3)nc2c1 [BC18405]		< 100
CCC1CCN(CCNC(=O)c2ccc3nc(-c4ccccc4)c(-c4ccccc4)nc3c2)CC1 [BC18406]		< 100
CNC(=O)c1ccc2nc(-c3cccc(C)c3)c(-c3cccc(C)c3)nc2c1 [BC18407]		1000 to 10000
COc1cccc(CNC(=O)c2ccc3nc(-c4ccc(F)cc4)c(-c4ccc(F)cc4)nc3c2)c1 [BC18408]		100 to 1000
O=C(c1ccc2nc(-c3ccccc3)c(-c3ccccc3)nc2c1)N1CCCC1 [BC18409]		< 100
O=C(NCc1ccccn1)c1ccc2nc(-c3ccccc3)c(-c3ccccc3)nc2c1 [BC18410]		< 100

SMILES	IC50 [1] [nM]	IC50 (LPS-stimulated) [nM]
CCOc1ccc(-c2nc3ccc(C(=O)NCCN(CC)CC)cc3nc2-c2ccc(OCC)cc2)cc1 [BC18411]		1000 to 10000
O=C(c1ccc2nc(-c3ccccc3)c(-c3ccccc3)nc2c1)N1CCN(c2ccccc2)CC1 [BC18412]		1000 to 10000
CSc1ccc(CNC(=O)c2ccc3nc(-c4ccc(F)cc4)c(-c4ccc(F)cc4)nc3c2)cc1 [BC18413]		100 to 1000
Cc1cccc(-c2nc3ccc(C(=O)NCc4ccc(F)cc4)cc3nc2-c2cccc(C)c2)c1 [BC18414]		> 10000
CCCNC(=O)c1ccc2nc(-c3ccc(F)cc3)c(-c3ccc(F)cc3)nc2c1 [BC18415]		< 100
CC(C)OCCCNC(=O)c1ccc2nc(-c3ccc(F)cc3)c(-c3ccc(F)cc3)nc2c1 [BC18416]		< 100
CCN(CC)CCCNC(=O)c1ccc2nc(-c3ccccc3)c(-c3ccccc3)nc2c1 [BC18417]		< 100
CCCN1CCN(CCCNC(=O)c2ccc3nc(-c4ccccc4)c(-c4ccccc4)nc3c2)CC1 [BC18418]		100 to 1000
CCCN(CCC)CCNC(=O)c1ccc2nc(-c3cccc(C)c3)c(-c3cccc(C)c3)nc2c1 [BC18419]		1000 to 10000
O=C(NCc1ccc(F)cc1)c1ccc2nc(-c3ccc(F)cc3)c(-c3ccc(F)cc3)nc2c1 [BC18420]		100 to 1000
O=C(NCc1ccc(Cl)cc1)c1ccc2nc(-c3ccccc3)c(-c3ccccc3)nc2c1 [BC18421]		> 10000
COCCNC(=O)c1ccc2nc(-c3ccccc3)c(-c3ccccc3)nc2c1 [BC18422]		< 100
C=CCN(CC=C)C(=O)c1ccc2nc(-c3ccccc3)c(-c3ccccc3)nc2c1 [BC18423]		< 100
Cc1cccc(CNC(=O)c2ccc3nc(-c4ccc(F)cc4)c(-c4ccc(F)cc4)nc3c2)c1 [BC18424]		100 to 1000
Cc1cccc(-c2nc3ccc(C(=O)NCCN4CCOCC4)cc3nc2-c2cccc(C)c2)c1 [BC18425]		1000 to 10000
CCN(CC)CCNC(=O)c1ccc2nc(-c3ccc(F)cc3)c(-c3ccc(F)cc3)nc2c1 [BC18426]		< 100
CCNC(=O)c1ccc2nc(-c3ccc(F)cc3)c(-c3ccc(F)cc3)nc2c1 [BC18427]		< 100
CCN(CC)CCNC(=O)c1ccc2nc(-c3ccccc3)c(-c3ccccc3)nc2c1 [BC18428]		< 100
O=C(c1ccc2nc(-c3ccccc3)c(-c3ccccc3)nc2c1)N1CCOCC1 [BC18429]		< 100
Cc1cccc(-c2nc3ccc(C(=O)NCCN4CCCC4)cc3nc2-c2cccc(C)c2)c1 [BC18430]		1000 to 10000
O=C(NC1CCCCC1)c1ccc2nc(-c3ccc(F)cc3)c(-c3ccc(F)cc3)nc2c1 [BC18431]		100 to 1000
CCCCNC(=O)c1ccc2nc(-c3ccccc3)c(-c3ccccc3)nc2c1 [BC18432]		100 to 1000
Cc1ccc(CNC(=O)c2ccc3nc(-c4ccc(C)cc4)c(-c4ccc(C)cc4)nc3c2)cc1 [BC18433]		> 10000
CCCN(Cc1ccc(C)cc1)C(=O)c1ccc2nc(-c3ccccc3)c(-c3ccccc3)nc2c1 [BC18434]		100 to 1000
